Results from PubChem BioAssay (NCI).
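Cultured in 96-well plates, cells were exposed to test compound for 48 hours across five concentrations. GI50 is the concentration that inhibits growth by half. TGI denotes the concentration required for complete inhibition of growth.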

Tests used:
Assay in all cases: NCI-60 cell line screen, 48 h
[1] = system: SF-539 CNS
[2] = system: A498 renal
[3] = system: HCC-2998 colon
[4] = system: CAKI-1 renal
[5] = system: UACC-62 melanoma
[6] = system: HOP-92 NSCLC
[7] = system: BT-549 breast
[8] = system: NCI/ADR-RES ovarian
[9] = system: M14 melanoma
[10] = system: NCI-H23 lung

Compound | GI50 [1] | TGI [1] | GI50 [2] | TGI [2] | GI50 [3] | TGI [3] | GI50 [4] | TGI [4] | GI50 [5] | TGI [5] | GI50 [6] | TGI [6] | GI50 [7] | TGI [7] | GI50 [8] | TGI [8] | GI50 [9] | TGI [9] | GI50 [10] | TGI [10]
COc1ccc(C2=C(Br)C(=O)OC2)cc1Cl | 15.2 µM | 39.8 µM | 27.9 µM | > 80.7 µM | 14.9 µM | 38.2 µM | 8.52 µM | 51.1 µM | 20.9 µM | > 64.4 µM | 45.2 µM | > 100 µM | 22.7 µM | 64.7 µM | 29.4 µM | > 79.2 µM | > 53 µM | > 100 µM | 29.5 µM | > 100 µM
NC(=O)Cc1ccccc1Oc1nccc(-c2c(-c3ccc(F)cc3)ncn2C2CCNCC2)n1 | > 25 µM | > 25 µM | > 25 µM | > 25 µM | > 25 µM | > 25 µM | > 25 µM | > 25 µM | > 25 µM | > 25 µM | > 25 µM | > 25 µM | > 25 µM | > 25 µM | > 25 µM | > 25 µM | > 25 µM | > 25 µM | > 25 µM | > 25 µM
CC(C)[C@@H]1NC(=O)[C@]2(C)CSC(=N2)c2csc(n2)CNC(=O)C[C@@H](/C=C/CCS)OC1=O | 0.0543 µM | > 100 µM | 0.0156 µM | 0.114 µM | 0.089 µM | 0.442 µM | 1.83 µM | 7.83 µM | 0.0477 µM | 0.28 µM | 0.137 µM | 0.677 µM | 0.397 µM | > 100 µM | 2.67 µM | > 100 µM | 0.0835 µM | 52.7 µM | 0.219 µM | > 30.6 µM
O=C(Nc1cccnc1)c1cccs1 | 4.51 µM | > 100 µM | > 100 µM | > 100 µM | 5.56 µM | > 100 µM | 1.4 µM | > 100 µM | 28.1 µM | > 100 µM | > 100 µM | > 100 µM | 6.78 µM | > 100 µM | 43.8 µM | > 100 µM | 0.506 µM | > 100 µM | 4.84 µM | > 100 µM
COC(=O)c1c2c(c[n+]([O-])c1C)C(=O)C(NCc1ccccc1)=CC2=O | 0.457 µM | 1.67 µM | 1.32 µM | 2.65 µM | 0.604 µM | 2 µM | 1.27 µM | 3.18 µM | 0.334 µM | 1.06 µM | 1.04 µM | 2.72 µM | 1.19 µM | 2.54 µM | 0.302 µM | 1.37 µM | 0.297 µM | 1.12 µM | 0.485 µM | 2.6 µM
Clc1ccc(N/N=C/c2ccccn2)nc1 | 0.329 µM | 2.46 µM | 0.439 µM | 5.9 µM | 0.422 µM | > 100 µM | 0.341 µM | > 22.7 µM | 0.301 µM | 1.08 µM | 0.608 µM | > 100 µM | 0.554 µM | > 55 µM | 0.383 µM | > 100 µM | 0.375 µM | – | 0.579 µM | > 100 µM
Cc1ccccc1NC(=O)N/C(N)=N/c1nc2ccccc2s1 | 0.041 µM | 0.725 µM | 0.0261 µM | 0.142 µM | 0.145 µM | > 100 µM | 0.0499 µM | > 100 µM | 0.0425 µM | > 100 µM | – | > 100 µM | 0.128 µM | – | 0.0372 µM | 5.84 µM | 0.0348 µM | 1.41 µM | 0.209 µM | > 100 µM
CCCCCCCCCCCCCCCCCC(=O)[O][Sn]([CH2]CCC)([CH2]CCC)[CH2]CCC | 0.181 µM | 0.377 µM | 0.0904 µM | 0.232 µM | 0.139 µM | 0.279 µM | 0.0524 µM | 0.214 µM | 0.176 µM | 0.45 µM | 0.0908 µM | 0.273 µM | 0.138 µM | 0.287 µM | 0.177 µM | 0.438 µM | 0.169 µM | 0.32 µM | 0.127 µM | 0.287 µM
C=C1C(=O)O[C@H]2[C@H]1CC/C(COC(=O)NCc1c[nH]c3ccc(OC)cc13)=C\CC[C@@]1(C)O[C@@H]21 | 1.53 µM | 3.02 µM | 13 µM | 25.8 µM | 5.77 µM | 19 µM | 1.46 µM | 3.28 µM | 1.7 µM | 3.69 µM | 1.79 µM | 3.44 µM | 0.441 µM | 1.91 µM | 7.87 µM | 28.8 µM | 1.36 µM | 3.4 µM | 3 µM | 9.33 µM
O=C(c1ccc(F)c(F)c1Nc1ccc(I)cc1F)N1CC(O)([C@H]2CCCCN2)C1 | 10.2 µM | 22.8 µM | 1.11 µM | 3.31 µM | 0.223 µM | 2.62 µM | 6.28 µM | 20.3 µM | 0.097 µM | 2.92 µM | 0.406 µM | 2.77 µM | 10.9 µM | 23.9 µM | 8.74 µM | 23 µM | 0.087 µM | 2.52 µM | 1.09 µM | 13.1 µM
O=c1oc2c(Br)c(O)c(Br)cc2c2ccccc12 | – | 63.3 µM | – | 58.5 µM | – | 72.4 µM | – | 31.1 µM | – | 50.5 µM | – | 74.6 µM | – | 75.3 µM | – | 78.1 µM | – | > 100 µM | – | 38.6 µM
NC(=O)c1ncn(C2OC(CO)C(O)C2O)n1 (stereo not given) | – | – | > 100 µM | > 100 µM | > 100 µM | > 100 µM | 57.2 µM | > 100 µM | > 100 µM | > 100 µM | > 100 µM | > 100 µM | > 100 µM | > 100 µM | 54.6 µM | > 100 µM | > 100 µM | > 100 µM | > 100 µM | > 100 µM
COC(=O)C1=C(C(=O)Nc2cccnc2)C2OC1(C(Cc1ccccc1)Oc1ccccc1)C1OC21 (stereo not given) | 7.04 µM | 19.8 µM | 11.2 µM | 23.8 µM | 14.7 µM | 30.3 µM | 1.78 µM | 4 µM | 3.23 µM | 13.1 µM | 1.46 µM | 3 µM | 3.43 µM | 12.8 µM | 18.8 µM | 56.5 µM | 2.62 µM | 7.45 µM | 12.3 µM | 29.1 µM
